What is called Ki is a measure of affinity in units of concentration, obtained from inhibition or displacement.

This passage reports Ki results from PMC6326163, “Choline Is an Intracellular Messenger Linking Extracellular Stimuli to IP3-Evoked Ca^2+ Signals through Sigma-1 Receptors” (Cell Reports, 2019).

Read-outs that look alike come from different tables or passages of the source.

The target of this assay is T1, Sigma-1 receptor (Sig-1R) (Homo sapiens, UniProt Q99720).
T1 construct: gene SIGMAR1; human Sig-1R-GFP stably expressed in Neuro-2A cell membranes
In words: [3H](+)-pentazocine competition radioligand binding, membranes.

T1 sequence (Q99720 whole entry): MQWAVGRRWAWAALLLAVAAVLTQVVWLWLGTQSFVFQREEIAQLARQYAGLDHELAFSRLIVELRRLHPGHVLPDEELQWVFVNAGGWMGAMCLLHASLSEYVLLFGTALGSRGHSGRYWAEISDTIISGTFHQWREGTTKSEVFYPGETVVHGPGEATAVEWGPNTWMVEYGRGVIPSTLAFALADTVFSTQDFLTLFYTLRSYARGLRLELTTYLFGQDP

`C[N+](C)(C)CC(=O)O` [betaine]: under “read-out: Ki”, the Ki was 1.32 mM.

With `C[N+](C)(C)CCO` [Choline], the Ki is 0.525 mM.

In the case of `CC(=O)OCC[N+](C)(C)C` [acetylcholine], the Ki (read-out: Ki) is about 12 mM.
